From patent publication US8865705B2, “Benzimidazole respiratory syncytial virus inhibitors” (Janssen R&D Ireland, priority 2010, dated 2014)
Like-named read-outs stand apart in the source and are kept apart here.

Tested on: rgRSV224 virus
Assay: microbe, parasite or virus in culture
Assay type: cell-based, respiratory syncytial virus (RSV)
Conditions: for EC50: read-out: WT activity EC50; for SI CC50/EC50: selectivity index, CC50 (HeLa cytotoxicity) over EC50 (rgRSV224)
Experimental: Black 96-well clear-bottom microtiter plates (Corning, Amsterdam, The Netherlands) were filled in duplicate using a customized robot system with serial 4-fold dilutions of compound in a final volume of 50 μl culture medium [RPMI medium without phenol red, 10% FBS, 0.04% gentamycin (50 mg/mL) and 0.5% DMSO]. Then, 100 μl of a HeLa cell suspension (5×10^4 cells/mL) in culture medium was added to each well followed by the addition of 50 μl rgRSV224 (MOI=0.02) virus in culture medium using a multidrop dispenser (Thermo Scientific, Erembodegem, Belgium). rgRSV224 virus is an engineered virus that includes an additional GFP gene (Hallak et al, 2000) and was in-licensed from the NIH (Bethesda, Md., USA). Medium, virus- and mock-infected controls were included in each test. Cells were incubated at 37° C. in a 5% CO2 atmosphere. Three days post-virus exposure, viral replication was quantified by measuring GFP expression in the cells by a MSM laser microscope (Tibotec, Beerse, Belgium). […] In parallel, compounds were incubated for three days in a set of white 96-well microtitier plates (Corning) and the cytotoxicity of compounds in HeLa cells was determined by measuring the ATP content of the cells using the ATPlite kit (PerkinElmer, Zaventem, Belgium) according to the manufacturer's instructions.

[1] = Table 2, rgRSV224 in HeLa cells, GFP expression three days post-virus exposure
[2] = human respiratory syncytial virus, HeLa, 72 h

CC(C)CCn1c(Cn2c(=O)n(C3CC3)c3ccc(F)cc32)nc2cc(Cl)ccc21 [P28]
EC50 [1]: 2.32 nM
SI CC50/EC50 (Table 2): 14563

O=c1n(Cc2nc3cc(Cl)ccc3n2CCCCF)c2cnccc2n1C1CC1 [P31]
EC50 [1]: 0.19 nM
SI CC50/EC50 (Table 2): >267110

CC(C)CCn1c(Cn2c(=O)n(C3CC3)c3ccc(F)cc32)nc2cc(Br)ccc21 [P32]
EC50 [1]: 2.53 nM
SI CC50/EC50 (Table 2): 25508

CC(C)(C)OC(=O)Cn1c(=O)n(Cc2nc3cc(Cl)ccc3n2CCCCF)c2cnccc21 [P33, tert-butyl (3-{[5-chloro-1-(4-fluorobutyl)-1H-benzimidazol-2-yl]methyl}-2-oxo-2,3-dihydro-1H-imidazo[4,5-c]pyridin-1-yl)acetate]
SI CC50/EC50 (Table 2): >49120
EC50 [2]: 1.9 nM

CS(=O)(=O)n1c(=O)n(Cc2nc3cc(Cl)ccc3n2CCCCF)c2cnccc21 [P34, 3-((5-chloro-1-(4-fluorobutyl)-1H-benzo[d]imidazol-2-yl)methyl)-1-(methylsulfonyl)-1H-imidazo[4,5-c]pyridin-2(3H)-one]
SI CC50/EC50 (Table 2): >1 048 580
EC50 [2]: 0.09 nM

CC(C)CCn1c(Cn2c(=O)n(C3CC3)c3ccccc32)nc2cc(Cl)ccc21 [P35]
EC50 [1]: 2.63 nM
SI CC50/EC50 (Table 2): 33466

O=C(CCCn1c(Cn2c(=O)n(C3CC3)c3ccncc32)nc2cc(Br)ccc21)NCCS(=O)(=O)n1ccnc1 [P38]
EC50 [1]: 0.22 nM
SI CC50/EC50 (Table 2): >445390

O=c1n(Cc2nc3cc(Cl)ccc3n2CCCCF)c2cnccc2n1CC(F)F [P40]
EC50 [1]: 0.048 nM
SI CC50/EC50 (Table 2): 2000000

O=c1n(Cc2ccc(F)cc2)c2ccncc2n1Cc1nc2cc(Cl)ccc2n1CCCCF [P41]
EC50 [1]: 0.16 nM
SI CC50/EC50 (Table 2): 503466

O=c1n(Cc2nc3cc(Cl)ccc3n2CCCNc2ncccn2)c2cnccc2n1C1CC1 [P44]
EC50 [1]: 0.3 nM
SI CC50/EC50 (Table 2): 302162

O=C(O)CCCn1c(Cn2c(=O)n(C3CC3)c3ccncc32)nc2cc(Cl)ccc21 [P45, 4-(5-chloro-2-((1-cyclopropyl-2-oxo-1H-imidazo[4,5-c]pyridin-3(2H)-yl)methyl)-1H-benzo[d]imidazol-1-yl)butanoic acid]
SI CC50/EC50 (Table 2): D. >19412
EC50 [2]: 5.15 nM

O=C1c2ccccc2C(=O)N1CCCCn1c(Cn2c(=O)n(C3CC3)c3ccncc32)nc2cc(Cl)ccc21 [P46]
EC50 [1]: 0.57 nM
SI CC50/EC50 (Table 2): >44185

O=c1n(Cc2nc3cc(Cl)ccc3n2CCCCc2ccccn2)c2cnccc2n1C1CC1 [P47]
EC50 [1]: 0.76 nM
SI CC50/EC50 (Table 2): 84254

O=C(CCCn1c(Cn2c(=O)n(C3CC3)c3ccncc32)nc2cc(Br)ccc21)N1CCOCC1 [P48, 3-((5-bromo-1-(4-morpholino-4-oxobutyl)-1H-benzo[d]imidazol-2-yl)-methyl)-1-cyclopropyl-1H-imidazo[4,5-c]pyridin-2(3H)-one]
SI CC50/EC50 (Table 2): >102584
EC50 [2]: 0.97 nM

O=C(CCCn1c(Cn2c(=O)n(C3CC3)c3ccncc32)nc2cc(Cl)ccc21)NS(=O)(=O)C1CC1 [P49, 4-(5-chloro-2-((1-cyclopropyl-2-oxo-1H-imidazo[4,5-c]pyridin-3 (2H)-yl)methyl)-1H-benzo[d]imidazol-1-yl)-N-(cyclopropylsulfonyl)butanamide]
SI CC50/EC50 (Table 2): >55412
EC50 [2]: 1.8 nM

O=c1n(Cc2nc3cc(Cl)ccc3n2CCCc2ccccc2)c2cnccc2n1C1CC1 [P50]
EC50 [1]: 0.23 nM
SI CC50/EC50 (Table 2): 93799

O=c1n(Cc2nc3cc(Cl)ccc3n2CCCn2ccnc2)c2cnccc2n1C1CC1 [P51, 3-({5-chloro-1-[3-(1H-imidazol-1-yl)propyl]-1H-benzimidazol-2-yl}methyl)-1-cyclopropyl-1,3-dihydro-2H-imidazo[4,5-c]pyridin-2-one]
SI CC50/EC50 (Table 2): >401504
EC50 [2]: 0.25 nM

CC(C)(C)OC(=O)CCCn1c(Cn2c(=O)n(C3CC3)c3ccncc32)nc2cc(Cl)ccc21 [P52]
EC50 [1]: 0.55 nM
SI CC50/EC50 (Table 2): 70937

O=c1n(Cc2nc3cc(Cl)ccc3n2CCCC(F)(F)F)c2cc(F)ccc2n1C1CC1 [P58]
EC50 [1]: 0.49 nM
SI CC50/EC50 (Table 2): 104559

CN(C(=O)CCCn1c(Cn2c(=O)n(C3CC3)c3ccncc32)nc2cc(Cl)ccc21)S(=O)(=O)C1CC1 [P59, 4-(5-chloro-2-((1-cyclopropyl-2-oxo-1H-imidazo[4,5-c]pyridin-3(2H)-yl)methyl)-1H-benzo[d]imidazol-1-yl)-N-(cyclopropylsulfonyl)-N-methylbutanamide]
SI CC50/EC50 (Table 2): >604770
EC50 [2]: 0.17 nM

CC(C)(C)OC(=O)Cn1c(=O)n(Cc2nc3cc(Cl)ccc3n2CCCC(F)(F)F)c2cnccc21 [P60]
EC50 [1]: 1.68 nM
SI CC50/EC50 (Table 2): >59486

O=C(CCn1c(Cn2c(=O)n(C3CC3)c3ccc(F)cc32)nc2cc(Cl)ccc21)N1CCOCC1 [P62]
EC50 [1]: 1.36 nM
SI CC50/EC50 (Table 2): >73334

O=C(CCCn1c(Cn2c(=O)n(C3CC3)c3ccncc32)nc2cc(Cl)ccc21)N1CCOCC1 [P63]
EC50 [1]: 1 nM
SI CC50/EC50 (Table 2): >98994

O=C(CCn1c(Cn2c(=O)n(C3CC3)c3ccncc32)nc2cc(Cl)ccc21)N1CCOCC1 [P64]
EC50 [1]: 1.45 nM
SI CC50/EC50 (Table 2): >68795

N#CCCCn1c(Cn2c(=O)n(C3CC3)c3ccccc32)nc2cc(Cl)ccc21 [P70]
EC50 [1]: 0.631 nM
SI CC50/EC50 (Table 2): >159787

CN(C)C(=O)Cn1c(=O)n(Cc2nc3cc(Cl)ccc3n2CCCCF)c2cnccc21 [P71]
EC50 [1]: 2.5 nM
SI CC50/EC50 (Table 2): >39781

N#CCCCn1c(Cn2c(=O)n(C3CC3)c3ccc(F)cc32)nc2cc(Cl)ccc21 [P73]
EC50 [1]: 1.58 nM
SI CC50/EC50 (Table 2): 23633

O=C(CCCn1c(Cn2c(=O)n(C3CC3)c3ccncc32)nc2cc(Br)ccc21)N1CCCCS1(=O)=O [P74]
EC50 [1]: 1.18 nM
SI CC50/EC50 (Table 2): >84529

O=C(CCCn1c(Cn2c(=O)n(C3CC3)c3ccncc32)nc2cc(Br)ccc21)N1CCCS1(=O)=O [P75]
EC50 [1]: 0.2 nM
SI CC50/EC50 (Table 2): >444590

NS(=O)(=O)NC(=O)CCCn1c(Cn2c(=O)n(C3CC3)c3ccncc32)nc2cc(Br)ccc21 [P76, 4-(5-bromo-2-((1-cyclopropyl-2-oxo-1H-imidazo[4,5-c]pyridin-3(2H)-yl)methyl)-1H-benzo[d]imidazol-1-yl)-N-sulfamoylbutanamide]
SI CC50/EC50 (Table 2): >214887
EC50 [2]: 0.47 nM

CCCS(=O)(=O)NC(=O)CCCn1c(Cn2c(=O)n(C3CC3)c3ccncc32)nc2cc(Br)ccc21 [P78]
EC50 [1]: 1.73 nM
SI CC50/EC50 (Table 2): >57893

CN(C(=O)CCCn1c(Cn2c(=O)n(C3CC3)c3ccncc32)nc2cc(Br)ccc21)S(C)(=O)=O [P79]
EC50 [1]: 0.56 nM
SI CC50/EC50 (Table 2): >177178

CS(=O)(=O)NC(=O)CCCn1c(Cn2c(=O)n(C3CC3)c3ccncc32)nc2cc(Br)ccc21 [P80]
EC50 [1]: 1 nM
SI CC50/EC50 (Table 2): >99444

CCCCS(=O)(=O)NC(=O)CCCn1c(Cn2c(=O)n(C3CC3)c3ccncc32)nc2cc(Br)ccc21 [P81]
EC50 [1]: 7.25 nM
SI CC50/EC50 (Table 2): >13798

NC(=O)CCCn1c(Cn2c(=O)n(C3CC3)c3ccncc32)nc2cc(Br)ccc21 [P82]
EC50 [1]: 0.58 nM
SI CC50/EC50 (Table 2): >85761

CNC(=O)CCCn1c(Cn2c(=O)n(C3CC3)c3ccncc32)nc2cc(Br)ccc21 [P83]
EC50 [1]: 0.9 nM
SI CC50/EC50 (Table 2): >111709

CS(=O)(=O)CCCn1c(Cn2c(=O)n(C3CC3)c3ccncc32)nc2ccccc21 [Ref1, reference compound]
EC50 [1]: 2.5 nM
SI CC50/EC50 (Table 2): >4315

O=c1n(Cc2nc3ccccc3n2CCCCO)c2cnccc2n1C1CC1 [Ref2, reference compound]
EC50 [1]: 3.98 nM
